Results from patent US9145351B2, “Azole derivatives, methods for producing the same, intermediate thereof, agro-horticultural agents” (KUREHA CORPORATION, priority 2009, dated 2015).
Like-named read-outs stand apart in the source and are kept apart here.

Key:
Type in all cases: cell-based
Phaeosphaeria nodorum = test: Plate medium fungicidal assay, wheat Septoria nodorum blotch P.n (Experimental Example 5); details: for inhibition at 5 µg/mL / inhibition at 50 µg/mL: Parastagonospora nodorum
Description: (§1) In this Experimental Example, the fungicidal effects of the inventive compounds on various phytopathogenic fungi for plants and hazardous microorganism for industrial materials were examined by the methods described below. Each inventive compound was dissolved in 2 ml of dimethyl sulfoxide. 0.6 ml of this solution was added to 60 nil of a PDA medium (potato dextrose agar medium) at about 60 degrees C., which was mixed thoroughly in a 100-ml conical flask, and poured into a dish, where it was solidified, thereby obtaining a plate medium containing the inventive compound at 50 mg/L and 5 mg/L. On the other hand, a subject microorganism previously cultured on a plate medium was cut out using a cork borer whose diameter was 4 mm, and inoculated to the test compound-containing plate medium described above. […] The growth degree of the microorganism on the test compound-containing plate medium thus observed was compared with the growth degree of the microorganism in the untreated group, and % mycelial growth inhibition was calculated by the following equation. R=100(dc−dt)/dc wherein R=% mycelial extension inhibition, dc=flora diameter in untreated plate, dt=flora diameter in treated plate. The results obtained as described above were evaluated as one of the 5 grades according to the following criteria. […] Wheat Septoria nodorum blotch (Phaeosphaeria nodorum) P.n

[1] = test system: Pseudocercoporella herpotrichoides; test: Plate medium fungicidal assay, wheat eye spot P.h (Experimental Example 5)
Description: as §1, with “eye spot (Pseudocercoporella herpotrichoides) P.h” for “Septoria nodorum blotch (Phaeosphaeria nodorum) P.n”

Fusarium graminearum = test: microbe, parasite or virus in culture; details: for Growth inhibition grade, F.g: plate medium; for inhibition at 5 µg/mL / inhibition at 50 µg/mL: Fusarium graminearum
Pyricularia oryzae = test: microbe, parasite or virus in culture; details: for Growth inhibition grade, P.o: plate medium; for inhibition at 5 µg/mL / inhibition at 50 µg/mL: Pyricularia oryzae
Giberella fujikuroi = test: Plate medium fungicidal assay, rice bakanae disease G.f (Experimental Example 5)
Description: as §1, with “Rice bakanae disease (Giberella fujikuroi) G.f” for “Wheat Septoria nodorum blotch (Phaeosphaeria nodorum) P.n”

Fusarium oxysporum = test: Plate medium fungicidal assay, cucumber fusarium wilt F.c (Experimental Example 5); details: for inhibition at 5 µg/mL / inhibition at 50 µg/mL: Fusarium oxysporum
Description: as §1, with “Cucumber fusarium wilt (Fusarium oxysporum) F.c” for “Wheat Septoria nodorum blotch (Phaeosphaeria nodorum) P.n”

Rhynchosporium secalis = test: Plate medium fungicidal assay, barley leaf blotch R.sec (Experimental Example 5); details: for inhibition at 5 µg/mL / inhibition at 50 µg/mL: Rhynchosporium secalis
Description: as §1, with “Barley leaf” for “Wheat Septoria nodorum”, “(Rhynchosporium secalis) R.sec” for “(Phaeosphaeria nodorum) P.n”

[2] = plate medium containing compound at 5 mg/L, read-out: Growth inhibition grade, P.n
[3] = plate medium containing compound at 50 mg/L, read-out: Growth inhibition grade, P.n
[4] = plate medium containing compound at 5 mg/L, read-out: Growth inhibition grade, P.h
[5] = plate medium containing compound at 50 mg/L, read-out: Growth inhibition grade, P.h
[6] = read-out: Growth inhibition grade, F.g
[7] = read-out: Growth inhibition grade, P.o
[8] = plate medium containing compound at 5 mg/L, read-out: Growth inhibition grade, G.f
[9] = plate medium containing compound at 50 mg/L, read-out: Growth inhibition grade, G.f
[10] = plate medium containing compound at 5 mg/L, read-out: Growth inhibition grade, F.c
[11] = plate medium containing compound at 50 mg/L, read-out: Growth inhibition grade, F.c
[12] = plate medium containing compound at 5 mg/L, read-out: Growth inhibition grade, R.sec
[13] = plate medium containing compound at 50 mg/L, read-out: Growth inhibition grade, R.sec
[14] = read-out: growth inhibition grade F.g
[15] = read-out: growth inhibition grade P.o

Row | Structure (SMILES) | Growth inhibition grade, P.n (Phaeosphaeria nodorum; plate medium, 5 mg/L) | Growth inhibition grade, P.n (Phaeosphaeria nodorum; plate medium, 50 mg/L) | Growth inhibition grade, P.h ([1]; plate medium, 5 mg/L) | Growth inhibition grade, P.h ([1]; plate medium, 50 mg/L) | Growth inhibition grade, F.g (Fusarium graminearum; 5 mg/L) | Growth inhibition grade, F.g (Fusarium graminearum; 50 mg/L) | Growth inhibition grade, P.o (Pyricularia oryzae; 5 mg/L) | Growth inhibition grade, P.o (Pyricularia oryzae; 50 mg/L) | Growth inhibition grade, G.f (Giberella fujikuroi; plate medium, 5 mg/L) | Growth inhibition grade, G.f (Giberella fujikuroi; plate medium, 50 mg/L) | Growth inhibition grade, F.c (Fusarium oxysporum; plate medium, 5 mg/L) | Growth inhibition grade, F.c (Fusarium oxysporum; plate medium, 50 mg/L) | Growth inhibition grade, R.sec (Rhynchosporium secalis; plate medium, 5 mg/L) | Growth inhibition grade, R.sec (Rhynchosporium secalis; plate medium, 50 mg/L) | inhibition at 5 µg/mL (Phaeosphaeria nodorum; [2]) | inhibition at 50 µg/mL (Phaeosphaeria nodorum; [3]) | inhibition at 5 µg/mL [1, 4] | inhibition at 50 µg/mL [1, 5] | inhibition at 5 µg/mL (Fusarium graminearum; [6]) | inhibition at 50 µg/mL (Fusarium graminearum; [6]) | further results
1 | O[C@]1(Cn2cncn2)[C@H](Cc2ccc(Cl)cc2)CCC1(CCl)CCl (relative stereo) [Compound I-203, cis-5-(4-chlorobenzyl)-2,2-bis(chloromethyl)-1-(1H-1,2,4-triazol-1-yl)methylcyclopentanol] | 5 (% Mycerial growth inhibition of 80% or higher) | 5 (% Mycerial growth inhibition of 80% or higher) | 5 (% Mycerial growth inhibition of 80% or higher) | 5 (% Mycerial growth inhibition of 80% or higher) | 5 (% Mycerial growth inhibition of 80% or higher) | 5 (% Mycerial growth inhibition of 80% or higher) | 5 (% Mycerial growth inhibition of 80% or higher) | 5 (% Mycerial growth inhibition of 80% or higher) | 5 (% Mycerial growth inhibition of 80% or higher) | 5 (% Mycerial growth inhibition of 80% or higher) | 5 (% Mycerial growth inhibition of 80% or higher) | 5 (% Mycerial growth inhibition of 80% or higher) | 5 (% Mycerial growth inhibition of 80% or higher) | 5 (% Mycerial growth inhibition of 80% or higher) | – | – | – | – | – | – | –
2 | C[C@]1(CCl)CC[C@@H](Cc2cccc(Cl)c2)[C@]1(O)Cn1cncn1 (racemic) [Compound I-74, (1RS,2SR,5SR)-5-(3-chlorobenzyl)-2-chloromethyl-2-methyl-1-(1H-1,2,4-triazol-1-ylmethyl)cyclopentanol] | – | – | – | – | – | – | – | – | – | – | – | – | – | – | > 80% | > 80% | > 80% | > 80% | > 80% | > 80% | inhibition at 5 µg/mL (Pyricularia oryzae; [7]): > 80%; inhibition at 50 µg/mL (Pyricularia oryzae; [7]): > 80%; inhibition at 5 µg/mL (Giberella fujikuroi; [8]): > 80%; inhibition at 50 µg/mL (Giberella fujikuroi; [9]): > 80%; inhibition at 5 µg/mL (Fusarium oxysporum; [10]): > 80%; inhibition at 50 µg/mL (Fusarium oxysporum; [11]): > 80%; inhibition at 5 µg/mL (Rhynchosporium secalis; [12]): > 80%; inhibition at 50 µg/mL (Rhynchosporium secalis; [13]): > 80%
3 | O[C@]1(Cn2cncn2)[C@H](Cc2ccc(Cl)cc2)CC[C@@H]1C(F)(F)F (racemic) [Compound I-65, (1RS,2SR,5SR)-5-(4-chlorobenzyl)-2-trifluoromethyl-1-(1H-1,2,4-triazol-1-ylmethyl)cyclopentanol] | – | – | – | – | – | – | – | – | – | – | – | – | – | – | 60 to 80% | > 80% | 40 to 60% | > 80% | 60 to 80% | > 80% | inhibition at 5 µg/mL (Pyricularia oryzae; [7]): 40 to 60%; inhibition at 50 µg/mL (Pyricularia oryzae; [7]): > 80%; inhibition at 5 µg/mL (Giberella fujikuroi; [8]): 60 to 80%; inhibition at 50 µg/mL (Giberella fujikuroi; [9]): > 80%; inhibition at 5 µg/mL (Fusarium oxysporum; [10]): 40 to 60%; inhibition at 50 µg/mL (Fusarium oxysporum; [11]): > 80%; inhibition at 5 µg/mL (Rhynchosporium secalis; [12]): 40 to 60%; inhibition at 50 µg/mL (Rhynchosporium secalis; [13]): > 80%
4 | C[C@]1(CCl)CC[C@H](Cc2cccc(Cl)c2)[C@]1(O)Cn1cncn1 (relative stereo) [Compound I-374] | 5 (% Mycerial growth inhibition of 80% or higher) | 5 (% Mycerial growth inhibition of 80% or higher) | 5 (% Mycerial growth inhibition of 80% or higher) | 5 (% Mycerial growth inhibition of 80% or higher) | 5 (% Mycerial growth inhibition of 80% or higher) | 5 (% Mycerial growth inhibition of 80% or higher) | 5 (% Mycerial growth inhibition of 80% or higher) | 5 (% Mycerial growth inhibition of 80% or higher) | 5 (% Mycerial growth inhibition of 80% or higher) | 5 (% Mycerial growth inhibition of 80% or higher) | 5 (% Mycerial growth inhibition of 80% or higher) | 5 (% Mycerial growth inhibition of 80% or higher) | 5 (% Mycerial growth inhibition of 80% or higher) | 5 (% Mycerial growth inhibition of 80% or higher) | – | – | – | – | – | – | –
5 | O[C@]1(Cn2cncn2)[C@@H](Cc2ccc(Cl)cc2)CC[C@@H]1C(F)(F)F (racemic) [Compound I-365, (1RS,2SR,5RS)-5-(4-chlorobenzyl)-2-trifluoromethyl-1-(1H-1,2,4-triazol-1-ylmethyl)cyclopentanol] | – | – | – | – | – | – | – | – | – | – | – | – | – | – | – | – | – | – | – | – | inhibition at 5 µg/mL (Phaeosphaeria nodorum; plate medium, 5 mg/L, read-out: growth inhibition grade P.n): 40 to 60%; inhibition at 50 µg/mL (Phaeosphaeria nodorum; plate medium, 50 mg/L, read-out: growth inhibition grade P.n): > 80%; inhibition at 5 µg/mL ([1]; plate medium, 5 mg/L, read-out: growth inhibition grade P.h): 20 to 40%; inhibition at 50 µg/mL ([1]; plate medium, 50 mg/L, read-out: growth inhibition grade P.h): > 80%; inhibition at 5 µg/mL (Fusarium graminearum; [14]): 20 to 40%; inhibition at 50 µg/mL (Fusarium graminearum; [14]): > 80%; inhibition at 5 µg/mL (Pyricularia oryzae; [15]): < 20%; inhibition at 50 µg/mL (Pyricularia oryzae; [15]): > 80%; inhibition at 5 µg/mL (Giberella fujikuroi; plate medium, 5 mg/L, read-out: growth inhibition grade G.f): < 20%; inhibition at 50 µg/mL (Giberella fujikuroi; plate medium, 50 mg/L, read-out: growth inhibition grade G.f): > 80%; inhibition at 5 µg/mL (Fusarium oxysporum; plate medium, 5 mg/L, read-out: growth inhibition grade F.c): 20 to 40%; inhibition at 50 µg/mL (Fusarium oxysporum; plate medium, 50 mg/L, read-out: growth inhibition grade F.c): > 80%; inhibition at 5 µg/mL (Rhynchosporium secalis; plate medium, 5 mg/L, read-out: growth inhibition grade R.sec): 20 to 40%; inhibition at 50 µg/mL (Rhynchosporium secalis; plate medium, 50 mg/L, read-out: growth inhibition grade R.sec): > 80%
